Paper PMC8020795 (Proceedings of the National Academy of Sciences of the …, 2021)
“Also recorded” adds a separate entry of the source.

Assays:
HCA-1 cells = test: EMT marker expression under hypoxia (qRT-PCR); assay type: cell-based, murine; conditions: hypoxic conditions (1% oxygen)
Protocol: Signaling, Danvers, MA) or β-actin (Sigma-Aldrich, St. Louis, MO) before incubation with HRP-conjugated secondary antibodies (Antibodies Inc., Davis, CA) for 1 h. Autoradiography was conducted after ECL reagent (Thermo Scientific, Rockford, IL) was added to the […]
Reverse transcription quantitative real time PCR
Total RNA was extracted from HCA-1 cells using the RNeasy Mini Kit (Qiagen, CA, USA). cDNAs were synthesized using the High-Capicity cDNA Reverse Transcription Kit (Applied Biosystems, CA, USA). Primers specific for Slug, Fn1, Cdh2, Vim, Foxc2, Zeb1, Zeb2, Twist1, Cdh1, Mta3, Cldn3, Cldn5, β-actin and GAPDH were used, and relative gene expression was determined using Real-Time SYBR Green PCR Master Mix (Applied Biosystems, CA, USA) on a QPCR System. The comparative threshold cycle method was used to calculate fold change in gene expression, which was normalized to β-actin as a […]

[1] = Non-GLP 14-d repeated dose toxicology; assay type: in vivo
CXCR4 = CXCR4 (Homo sapiens, UniProt P61073); test: Human CXCR4-binding assay ([125I]CXCL12 displacement, hCXCR4-transfected HEK293T membranes); set-up: expressed in transfected cells; host or cells: HEK293T
Protocol: concentrations of BPRCX807 in incubation buffer (50 mM HEPES-NaOH, pH 7.4, 100 mM NaCl, 5 mM MgCl2, 1 mM CaCl2, 0.5% BSA). Nonspecific binding was defined in the […]
The reaction mixtures were incubated for 1.5 h at 30 °C and then transferred to a 96 -well GF/B filter plate (Merck Millipore, Billerica, MA).
The reaction mixtures were terminated by manifold filtration and washed with ice-cold wash buffer (50 mM HEPES-NaOH, pH 7.4, 100 mM NaCl) four times. The radioactivity bound to the filter was measured with a TopCount instrument (PerkinElmer, Waltham, MA). The IC50 values were determined as the concentrations of the compounds required to inhibit 50% of the specific binding of [125I]CXCL12 and were calculated by nonlinear regression (GraphPad software, San Diego, CA).
Pharmacokinetics and toxicological studies
Male C57BL/6 mice, each weighing 23.4–25.4 g, were quarantined for 1 week before drug treatment. Compounds dissolved in 100% saline were individually given to mice (n = 3) subcutaneously (6 mg/kg; nonfasted mice). […] The plasma samples were analyzed by liquid chromatography– tandem mass spectrometry (LC–MS/MS), and the data were calculated by a standard noncompartmental method using the Kinetica software program (InnaPhase). […]

[2] = tested on: human liver cytochrome P450 isozymes (CYP 1A2, 2C9, 2C19, 2D6, 2E1, 3A4); conditions: 100 μM; 1A2, 2C9, 2C19, 2D6, 2E1, and 3A4 isozymes
Excerpt: The effects of BPRCX807 on the activity of six specific human liver cytochrome P450 isozymes (CYP 1A2, 2C9, 2C19, 2D6, 2E1, 3A4) expressed in baculovirus-infected insect cell supersomes were studied. The reactions used to measure the activity of these enzymes

DEN/CCl4-induced HCC = test: DEN/CCl4-induced liver fibrosis associated HCC model; assay type: in vivo, C3H mice
Protocol: (§1) In vivo hepatocellular carcinoma treatment studies […]
mouse PD-1 (200 µg/mouse; BioXcell, BE0146). The therapeutic efficacy and the changes in immune cells were analyzed after two weeks of treatment. The tumor volume was calculated with the following formula: volume = width × length × height/2. The lung metastatic nodules

orthotopic JHH-7 tumors = test: Orthotopic JHH-7 HCC model; assay type: in vivo, nude mice; conditions: combination with sorafenib (40 mg/kg/d, oral); BPRCX807 15 mg/kg/d SC minipump
Protocol: as §1
mouse PD-1 (200 µg/mouse; BioXcell, BE0146). The therapeutic efficacy and the changes in immune cells were analyzed after two weeks of treatment. The tumor volume was calculated with the following formula: volume = width × length × height/2. […]

Chain of CXCR4 (P61073 whole entry): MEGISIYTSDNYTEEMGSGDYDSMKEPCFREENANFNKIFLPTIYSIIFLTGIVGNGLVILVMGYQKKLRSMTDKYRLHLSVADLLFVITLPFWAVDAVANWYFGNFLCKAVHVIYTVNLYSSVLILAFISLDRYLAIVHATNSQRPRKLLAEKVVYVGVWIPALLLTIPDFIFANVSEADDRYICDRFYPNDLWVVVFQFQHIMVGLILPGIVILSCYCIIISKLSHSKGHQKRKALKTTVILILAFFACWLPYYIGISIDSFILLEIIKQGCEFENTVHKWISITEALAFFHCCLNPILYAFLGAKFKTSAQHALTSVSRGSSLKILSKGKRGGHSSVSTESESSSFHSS

With `Cc1cc(NC2CCN(C(=O)CCNCC(=O)O)CC2)nc(NCc2nc(CCCNCCCNC3CCCCC3)co2)n1` [BPRCX807] the “Expression of epithelial markers (E-cadherin, MTA-3, CLDN3, CLDN5)” value (HCA-1 cells) was “alleviated a hypoxia-induced decrease in the epithelial markers”, the “Expression of mesenchymal markers (Slug, Fibronectin, N-cadherin, Vimentin, FOXC2, Zeb1, Zeb2)” value (HCA-1 cells; dose-dependent) was “restrained the increases in the expression of mesenchymal markers” and the “Survival in repeated dose toxicology” value ([1]; SD rats, 50 mg/kg/d, 14 d) was “all animals survived up to study termination”. For the same compound, the “Non-GLP 14-d repeated dose, overall finding” value ([1]; rat, in vivo) was “Clean”, the “Hematological and biochemical data vs vehicle” value ([1]; rat, in vivo, 50 mg/kg/day) was “no significant difference” and the “Major organs (heart, lung, kidney, liver) vs vehicle” value ([1]; rat, in vivo, 50 mg/kg/day) was “normal in size, weight, and color”. The “Adrenal Glands/B.W.” value ([1]; rat, in vivo, sc, 50 mg/kg) was 0.0002 ± 0.00003, the “Albumin (ALB)” value ([1]; rat, in vivo, sc, 50 mg/kg) was 4.0 ± 0.2 g/dL and the “Alkaline Phosphatase (ALP)” value ([1]; rat, in vivo, sc, 50 mg/kg) was 901 ± 60 U/L. For the same compound, the Basophil ([1]; rat, in vivo, sc, 50 mg/kg) was 0.002 ± 0.004 103/µL, the Basophil % ([1]; rat, in vivo, sc, 50 mg/kg) was 0.01 ± 0.02% and the “Blood Urea Nitrogen (BUN)” value ([1]; rat, in vivo, sc, 50 mg/kg) was 16.7 ± 2.1 mg/dL. For the same compound, the “Creatinine (CRE)” value ([1]; rat, in vivo, sc, 50 mg/kg) was 0.22 ± 0.04 mg/dL, the Eosinophil ([1]; rat, in vivo, sc, 50 mg/kg) was 0.01 ± 0.01 103/µL and the Eosinophil % ([1]; rat, in vivo, sc, 50 mg/kg) was 0.11 ± 0.05%. The Erythrocyte ([1]; rat, in vivo, sc, 50 mg/kg) was 6.33 ± 0.45 106/µL, the “Glutamate oxaloacetate transaminase (GOT)” value ([1]; rat, in vivo, sc, 50 mg/kg) was 67 ± 7 U/L and the “Glutamate pyruvate transaminase (GPT)” value ([1]; rat, in vivo, sc, 50 mg/kg) was 35 ± 5 U/L. It also gave a Heart/B.W. ([1]; rat, in vivo, sc, 50 mg/kg) of 0.0038 ± 0.0004, a Hematocrit ([1]; rat, in vivo, sc, 50 mg/kg) of 41.4 ± 3.5 and a Hemoglobin ([1]; rat, in vivo, sc, 50 mg/kg) of 13.8 ± 0.9 g/dL. For the same compound, the Kidneys/B.W. ([1]; rat, in vivo, sc, 50 mg/kg) was 0.0095 ± 0.0011, the “Lactate dehydrogenase (LDH)” value ([1]; rat, in vivo, sc, 50 mg/kg) was 272 ± 132 U/L and the Liver/B.W. ([1]; rat, in vivo, sc, 50 mg/kg) was 0.0460 ± 0.0044. For the same compound, the Lung/B.W. ([1]; rat, in vivo, sc, 50 mg/kg) was 0.0054 ± 0.0005, the Lymphocyte ([1]; rat, in vivo, sc, 50 mg/kg) was 6.36 ± 3.70 103/µL and the Lymphocyte % ([1]; rat, in vivo, sc, 50 mg/kg) was 58.95 ± 6.42%. The Mean corpuscle hemoglobin ([1]; rat, in vivo, sc, 50 mg/kg) was 21.8 ± 1.0 pg, the Mean corpuscle volume ([1]; rat, in vivo, sc, 50 mg/kg) was 65.4 ± 2.7 fL and the Mean platelet volume ([1]; rat, in vivo, sc, 50 mg/kg) was 6.4 ± 0.1 fL. The Monocyte ([1]; rat, in vivo, sc, 50 mg/kg) was 0.63 ± 0.36 103/µL, the Monocyte % ([1]; rat, in vivo, sc, 50 mg/kg) was 5.82 ± 1.11% and the Neutrophil ([1]; rat, in vivo, sc, 50 mg/kg) was 3.75 ± 2.13 103/µL. For the same compound, the Neutrophil % ([1]; rat, in vivo, sc, 50 mg/kg) was 35.11 ± 5.51%, the Platelet ([1]; rat, in vivo, sc, 50 mg/kg) was 1327± 239 103/µL and the Spleen/B.W. ([1]; rat, in vivo, sc, 50 mg/kg) was 0.0021 ± 0.0004. For the same compound, the Testes/B.W. ([1]; rat, in vivo, sc, 50 mg/kg) was 0.0094 ± 0.0006, the Thymus/B.W. ([1]; rat, in vivo, sc, 50 mg/kg) was 0.0021 ± 0.0006 and the White blood cells ([1]; rat, in vivo, sc, 50 mg/kg) was 10.75 ± 6.09 103/µL. The IC50 (CXCR4) was 40.4 ± 8 nM, the CYP450 inhibition [2] was “no inhibitory effects; also recorded: No inhibition” and the “Tumors in fibrotic liver” value (DEN/CCl4-induced HCC; combination with anti–PD-1, BPRCX807 15 mg/kg/d SC minipump weeks 25 to 28) was “remarkably suppressed”. The Tumor size (DEN/CCl4-induced HCC; combination with sorafenib) was “significantly reduce tumor size more efficiently than sorafenib alone” and the Tumor volume reduction (orthotopic JHH-7 tumors) was roughly 77%.
